According to ChEMBL document CHEMBL1201862, “PubChem BioAssay data set” (2004):
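Each compound was tested at five concentrations against cells in 96-well plates for 48 hours. GI50 = concentration required for 50% inhibition of growth.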 Activity calls are given as the source filed them. Rule as the data show it: active = GI50 up to about 1.1 µM and inactive = higher.

Assays:
Test in all cases: DTP human tumour cell line panel, 48 h
786-0 = tested on: 786-0
A498 = tested on: A498
A549 = tested on: A549
ACHN = tested on: ACHN
CAKI-1 = tested on: CAKI-1
CCRF-CEM = tested on: CCRF-CEM
COLO 205 = tested on: COLO 205
DLD-1 = tested on: DLD-1
DMS-114 = tested on: DMS-114
DMS-273 = tested on: DMS-273
EKVX = tested on: EKVX
HCC 2998 = tested on: HCC 2998
HCT-116 = tested on: HCT-116
HCT-15 = tested on: HCT-15
HL-60 = tested on: HL-60
HOP-18 = tested on: HOP-18
HOP-62 = tested on: HOP-62
HOP-92 = tested on: HOP-92
HT-29 = tested on: HT-29
IGROV-1 = tested on: IGROV-1
KM-20L2 = tested on: KM-20L2
KM12 = tested on: KM12
LXFL 529 = tested on: LXFL 529
M14 = tested on: M14
M19-MEL = tested on: M19-MEL
MOLT-4 = tested on: MOLT-4
Malme-3M = tested on: Malme-3M
NCI-H226 = tested on: NCI-H226
NCI-H23 = tested on: NCI-H23
NCI-H460 = tested on: NCI-H460
NCI-H522 = tested on: NCI-H522
OVCAR-3 = tested on: OVCAR-3
OVCAR-4 = tested on: OVCAR-4
OVCAR-8 = tested on: OVCAR-8
RXF 393 = tested on: RXF 393
SF-268 = tested on: SF-268
SF-295 = tested on: SF-295
SF-539 = tested on: SF-539
SK-MEL-28 = tested on: SK-MEL-28
SK-MEL-2 = tested on: SK-MEL-2
SK-MEL-5 = tested on: SK-MEL-5
SK-OV-3 = tested on: SK-OV-3
SN12C = tested on: SN12C
SNB-19 = tested on: SNB-19
SNB-75 = tested on: SNB-75
SNB-78 = tested on: SNB-78
SR = tested on: SR
SW-620 = tested on: SW-620
TK-10 = tested on: TK-10
U-251 = tested on: U-251
UACC-257 = tested on: UACC-257
UACC-62 = tested on: UACC-62
UO-31 = tested on: UO-31
XF498 = tested on: XF498
K562 = tested on: K562
LOX IMVI = tested on: LOX IMVI
MCF7 = tested on: MCF7
NCI/ADR-RES = tested on: NCI/ADR-RES
OVCAR-5 = tested on: OVCAR-5
RPMI-8226 = tested on: RPMI-8226

SMILES: O=C1NC(=O)C(=O)C(c2nc3ccccc3s2)C1=O
- GI50 (786-0): > 100 µM (inactive)
- GI50 (A498): > 100 µM (inactive)
- GI50 (A549): > 100 µM (inactive)
- GI50 (ACHN): > 100 µM (inactive)
- GI50 (CAKI-1): > 100 µM (inactive)
- GI50 (CCRF-CEM): > 100 µM (inactive)
- GI50 (COLO 205): > 100 µM (inactive)
- GI50 (DLD-1): > 100 µM (inactive)
- GI50 (DMS-114): > 100 µM (inactive)
- GI50 (DMS-273): > 100 µM (inactive)
- GI50 (EKVX): > 100 µM (inactive)
- GI50 (HCC 2998): > 100 µM (inactive)
- GI50 (HCT-116): > 100 µM (inactive)
- GI50 (HCT-15): > 100 µM
- GI50 (HL-60): > 100 µM (inactive)
- GI50 (HOP-18): > 100 µM (inactive)
- GI50 (HOP-62): > 100 µM (inactive)
- GI50 (HOP-92): > 100 µM (inactive)
- GI50 (HT-29): > 100 µM (inactive)
- GI50 (IGROV-1): > 100 µM (inactive)
- GI50 (KM-20L2): > 100 µM (inactive)
- GI50 (KM12): > 100 µM (inactive)
- GI50 (LXFL 529): > 100 µM (inactive)
- GI50 (M14): > 100 µM (inactive)
- GI50 (M19-MEL): > 100 µM (inactive)
- GI50 (MOLT-4): > 100 µM (inactive)
- GI50 (Malme-3M): > 100 µM (inactive)
- GI50 (NCI-H226): > 100 µM (inactive)
- GI50 (NCI-H23): > 100 µM (inactive)
- GI50 (NCI-H460): > 100 µM (inactive)
- GI50 (NCI-H522): > 100 µM (inactive)
- GI50 (OVCAR-3): > 100 µM (inactive)
- GI50 (OVCAR-4): > 100 µM (inactive)
- GI50 (OVCAR-8): > 100 µM (inactive)
- GI50 (RXF 393): > 100 µM (inactive)
- GI50 (SF-268): > 100 µM (inactive)
- GI50 (SF-295): > 100 µM (inactive)
- GI50 (SF-539): > 100 µM (inactive)
- GI50 (SK-MEL-28): > 100 µM (inactive)
- GI50 (SK-MEL-2): > 100 µM (inactive)
- GI50 (SK-MEL-5): > 100 µM (inactive)
- GI50 (SK-OV-3): > 100 µM (inactive)
- GI50 (SN12C): > 100 µM (inactive)
- GI50 (SNB-19): > 100 µM (inactive)
- GI50 (SNB-75): > 100 µM (inactive)
- GI50 (SNB-78): > 100 µM (inactive)
- GI50 (SR): > 100 µM (inactive)
- GI50 (SW-620): > 100 µM (inactive)
- GI50 (TK-10): > 100 µM (inactive)
- GI50 (U-251): > 100 µM (inactive)
- GI50 (UACC-257): > 100 µM (inactive)
- GI50 (UACC-62): > 100 µM (inactive)
- GI50 (UO-31): > 100 µM (inactive)
- GI50 (XF498): > 100 µM (inactive)

SMILES: O=NN(CCCl)C(=O)N[C@H]1CC[C@H](CC(=O)O)CC1
- GI50 (786-0): 44 µM (inactive)
- GI50 (A498): > 100 µM (inactive)
- GI50 (A549): 87.3 µM (inactive)
- GI50 (ACHN): > 100 µM (inactive)
- GI50 (CAKI-1): > 100 µM (inactive)
- GI50 (CCRF-CEM): 21.1 µM (inactive)
- GI50 (COLO 205): > 100 µM (inactive)
- GI50 (DLD-1): > 100 µM (inactive)
- GI50 (DMS-114): 61.9 µM (inactive)
- GI50 (DMS-273): > 100 µM (inactive)
- GI50 (EKVX): > 46.5 µM (inactive)
- GI50 (HCC 2998): > 100 µM (inactive)
- GI50 (HCT-116): > 100 µM (inactive)
- GI50 (HCT-15): > 100 µM
- GI50 (HL-60): 29.7 µM (inactive)
- GI50 (HOP-18): > 78.7 µM (inactive)
- GI50 (HOP-62): > 94.6 µM (inactive)
- GI50 (HOP-92): > 100 µM (inactive)
- GI50 (HT-29): > 100 µM (inactive)
- GI50 (IGROV-1): > 100 µM (inactive)
- GI50 (K562): 60.3 µM (inactive)
- GI50 (KM-20L2): > 46.5 µM (inactive)
- GI50 (KM12): > 100 µM (inactive)
- GI50 (LOX IMVI): 22.1 µM (inactive)
- GI50 (LXFL 529): > 100 µM (inactive)
- GI50 (M14): > 100 µM (inactive)
- GI50 (M19-MEL): > 100 µM (inactive)
- GI50 (MCF7): > 100 µM (inactive)
- GI50 (MOLT-4): 11.9 µM (inactive)
- GI50 (Malme-3M): > 82.2 µM (inactive)
- GI50 (NCI-H226): > 100 µM (inactive)
- GI50 (NCI-H23): > 89.1 µM (inactive)
- GI50 (NCI-H460): 45.2 µM (inactive)
- GI50 (NCI-H522): 28 µM (inactive)
- GI50 (NCI/ADR-RES): > 100 µM (inactive)
- GI50 (OVCAR-3): > 100 µM (inactive)
- GI50 (OVCAR-4): > 100 µM (inactive)
- GI50 (OVCAR-5): > 100 µM (inactive)
- GI50 (OVCAR-8): > 100 µM (inactive)
- GI50 (RPMI-8226): 33.1 µM (inactive)
- GI50 (RXF 393): > 100 µM (inactive)
- GI50 (SF-268): 18.5 µM (inactive)
- GI50 (SF-295): 34.8 µM (inactive)
- GI50 (SF-539): 26.1 µM (inactive)
- GI50 (SK-MEL-28): > 100 µM (inactive)
- GI50 (SK-MEL-2): > 100 µM (inactive)
- GI50 (SK-MEL-5): > 100 µM (inactive)
- GI50 (SK-OV-3): > 100 µM (inactive)
- GI50 (SN12C): 66.8 µM (inactive)
- GI50 (SNB-19): 59.3 µM (inactive)
- GI50 (SNB-75): 50.4 µM (inactive)
- GI50 (SNB-78): > 100 µM (inactive)
- GI50 (SR): 32.2 µM (inactive)
- GI50 (SW-620): > 69.2 µM (inactive)
- GI50 (TK-10): > 100 µM (inactive)
- GI50 (U-251): 33.2 µM (inactive)
- GI50 (UACC-257): > 100 µM (inactive)
- GI50 (UACC-62): 15.4 µM (inactive)
- GI50 (UO-31): > 100 µM (inactive)
- GI50 (XF498): > 100 µM (inactive)
